Measurements reported in the NIST ThermoML archive (doi:10.1021/je020131a).
Numbers after ± are expanded uncertainties.

Legend:
[1] = xn = mol fraction of the nth substance listed; details: 101.3 kPa, Liquid, Falling or rolling sphere viscometry
[2] = Liquid; for viscosity: 101.3 kPa, Falling or rolling sphere viscometry

CCOC(=O)OCC [diethyl carbonate] + CCCCCCC
[1]
Details	viscosity [mPa·s]
293.15 K, x1 = 0.049	0.41 ± 0.02
293.15 K, x1 = 0.0983	0.413 ± 0.02
293.15 K, x1 = 0.1973	0.427 ± 0.02
293.15 K, x1 = 0.297	0.449 ± 0.02
293.15 K, x1 = 0.3989	0.477 ± 0.02
293.15 K, x1 = 0.4952	0.508 ± 0.02
293.15 K, x1 = 0.601	0.549 ± 0.02
293.15 K, x1 = 0.7014	0.594 ± 0.021
293.15 K, x1 = 0.8012	0.647 ± 0.021
293.15 K, x1 = 0.8985	0.707 ± 0.021
293.15 K, x1 = 0.9482	0.744 ± 0.021
293.15 K, x1 = 1	0.795 ± 0.021
298.15 K, x1 = 0.0509	0.39 ± 0.02
298.15 K, x1 = 0.0977	0.394 ± 0.02
298.15 K, x1 = 0.1973	0.41 ± 0.02
298.15 K, x1 = 0.3052	0.43 ± 0.02
298.15 K, x1 = 0.3949	0.453 ± 0.02
298.15 K, x1 = 0.5028	0.486 ± 0.02
298.15 K, x1 = 0.5924	0.516 ± 0.02
298.15 K, x1 = 0.7096	0.565 ± 0.02
298.15 K, x1 = 0.8054	0.612 ± 0.021
298.15 K, x1 = 0.9028	0.673 ± 0.021
298.15 K, x1 = 0.9495	0.709 ± 0.021
298.15 K, x1 = 1	0.749 ± 0.021
303.15 K, x1 = 0.0506	0.386 ± 0.02
303.15 K, x1 = 0.1001	0.389 ± 0.02
303.15 K, x1 = 0.1991	0.399 ± 0.02
303.15 K, x1 = 0.301	0.416 ± 0.02
303.15 K, x1 = 0.4058	0.438 ± 0.02
303.15 K, x1 = 0.5006	0.464 ± 0.02
303.15 K, x1 = 0.6133	0.501 ± 0.02
303.15 K, x1 = 0.7037	0.539 ± 0.02
303.15 K, x1 = 0.8029	0.584 ± 0.02
303.15 K, x1 = 0.8988	0.637 ± 0.021
303.15 K, x1 = 0.946	0.667 ± 0.021
303.15 K, x1 = 1	0.699 ± 0.021
313.15 K, x1 = 0.0493	0.337 ± 0.02
313.15 K, x1 = 0.0986	0.344 ± 0.02
313.15 K, x1 = 0.1975	0.362 ± 0.02
313.15 K, x1 = 0.2962	0.381 ± 0.02
313.15 K, x1 = 0.3992	0.403 ± 0.02
313.15 K, x1 = 0.4943	0.426 ± 0.02
313.15 K, x1 = 0.5992	0.456 ± 0.02
313.15 K, x1 = 0.699	0.49 ± 0.02
313.15 K, x1 = 0.8009	0.528 ± 0.02
313.15 K, x1 = 0.8984	0.573 ± 0.02
313.15 K, x1 = 0.9508	0.599 ± 0.021
313.15 K, x1 = 1	0.623 ± 0.021

CCOC(=O)OCC [diethyl carbonate] + CCCCCCCC
[1]
Details	viscosity [mPa·s]
293.15 K, x1 = 0.0504	0.535 ± 0.021
293.15 K, x1 = 0.099	0.528 ± 0.021
293.15 K, x1 = 0.1947	0.529 ± 0.021
293.15 K, x1 = 0.2939	0.535 ± 0.021
293.15 K, x1 = 0.3911	0.55 ± 0.021
293.15 K, x1 = 0.4965	0.574 ± 0.021
293.15 K, x1 = 0.6012	0.604 ± 0.021
293.15 K, x1 = 0.6971	0.641 ± 0.021
293.15 K, x1 = 0.7996	0.684 ± 0.021
293.15 K, x1 = 0.8871	0.727 ± 0.021
293.15 K, x1 = 0.9502	0.763 ± 0.021
293.15 K, x1 = 1	0.795 ± 0.021
298.15 K, x1 = 0.0568	0.514 ± 0.021
298.15 K, x1 = 0.1069	0.51 ± 0.02
298.15 K, x1 = 0.1985	0.511 ± 0.02
298.15 K, x1 = 0.2979	0.515 ± 0.02
298.15 K, x1 = 0.3968	0.528 ± 0.02
298.15 K, x1 = 0.5035	0.551 ± 0.021
298.15 K, x1 = 0.605	0.578 ± 0.021
298.15 K, x1 = 0.7054	0.614 ± 0.021
298.15 K, x1 = 0.8042	0.653 ± 0.021
298.15 K, x1 = 0.9035	0.698 ± 0.021
298.15 K, x1 = 0.9549	0.728 ± 0.021
298.15 K, x1 = 1	0.749 ± 0.021
303.15 K, x1 = 0.0504	0.485 ± 0.02
303.15 K, x1 = 0.1002	0.485 ± 0.02
303.15 K, x1 = 0.2035	0.486 ± 0.02
303.15 K, x1 = 0.2953	0.494 ± 0.02
303.15 K, x1 = 0.3942	0.507 ± 0.02
303.15 K, x1 = 0.5035	0.525 ± 0.02
303.15 K, x1 = 0.6019	0.55 ± 0.02
303.15 K, x1 = 0.7055	0.58 ± 0.021
303.15 K, x1 = 0.8011	0.613 ± 0.021
303.15 K, x1 = 0.8999	0.654 ± 0.021
303.15 K, x1 = 0.9498	0.677 ± 0.021
303.15 K, x1 = 1	0.699 ± 0.021
313.15 K, x1 = 0.0495	0.436 ± 0.02
313.15 K, x1 = 0.0984	0.44 ± 0.02
313.15 K, x1 = 0.1957	0.448 ± 0.02
313.15 K, x1 = 0.2957	0.459 ± 0.02
313.15 K, x1 = 0.3958	0.472 ± 0.02
313.15 K, x1 = 0.4982	0.488 ± 0.02
313.15 K, x1 = 0.6036	0.508 ± 0.02
313.15 K, x1 = 0.6992	0.529 ± 0.02
313.15 K, x1 = 0.7994	0.554 ± 0.02
313.15 K, x1 = 0.8992	0.586 ± 0.021
313.15 K, x1 = 0.9502	0.608 ± 0.021
313.15 K, x1 = 1	0.623 ± 0.021

COC(=O)OC [dimethyl carbonate]
[2]
Details	viscosity [mPa·s]
293.15 K	0.626 ± 0.021
298.15 K	0.585 ± 0.021
303.15 K	0.536 ± 0.021
313.15 K	0.494 ± 0.02

Details	mass density [kg/m3]
[2], 298.15 K, 101.33 kPa, Vibrating tube method	1063.5 ± 0.6
